Kd and IC50 data for eight compounds are collected here from patent US20250090699A1, “FAP TARGETING CYCLIC PEPTIDES AND CONJUGATES THEREOF” (Novartis AG, priority 2023, published 2025).

For assay [1], the target named is T1, mouse FAP (Mus musculus, UniProt P97321).
T1 construct: biotinylated His, Avi tag, mouse FAP (26-761, FAP-M82Q5); His; Avi tag (biotinylated); purchased AcroBiosystems FAP-M82Q5
T1 sequence (P97321 26-761): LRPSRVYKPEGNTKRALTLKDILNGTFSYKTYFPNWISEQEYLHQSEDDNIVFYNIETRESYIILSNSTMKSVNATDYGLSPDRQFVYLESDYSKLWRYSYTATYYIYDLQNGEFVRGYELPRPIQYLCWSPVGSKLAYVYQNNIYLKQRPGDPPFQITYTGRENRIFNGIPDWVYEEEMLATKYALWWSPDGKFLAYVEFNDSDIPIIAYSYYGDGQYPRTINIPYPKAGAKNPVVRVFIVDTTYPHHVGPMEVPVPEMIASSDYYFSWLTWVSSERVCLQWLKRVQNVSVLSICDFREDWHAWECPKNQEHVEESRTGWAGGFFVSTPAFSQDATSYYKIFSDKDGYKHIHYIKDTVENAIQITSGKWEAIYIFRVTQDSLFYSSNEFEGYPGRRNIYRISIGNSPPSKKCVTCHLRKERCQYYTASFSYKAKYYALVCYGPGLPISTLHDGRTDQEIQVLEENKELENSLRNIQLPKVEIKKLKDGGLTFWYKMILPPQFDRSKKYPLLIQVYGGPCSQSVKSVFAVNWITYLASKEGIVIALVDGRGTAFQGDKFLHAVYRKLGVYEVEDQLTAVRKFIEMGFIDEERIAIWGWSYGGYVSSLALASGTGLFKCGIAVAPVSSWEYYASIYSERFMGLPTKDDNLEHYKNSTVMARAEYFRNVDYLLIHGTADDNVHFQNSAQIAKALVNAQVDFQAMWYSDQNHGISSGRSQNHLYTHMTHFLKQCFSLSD
Put plainly: Surface plasmon resonance (SPR) for peptide affinity, mouse FAP. Type of assay: binding. The essentials:
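Biotinylated His/Avi-tagged FAP ectodomains (human 26-760, mouse 26-761) captured or immobilized on Biacore sensor chips; peptides run at 25 °C in HBS-EP+ pH 7.6 with 2% DMSO, single-cycle kinetics, 8 concentrations. KD from 1:1 binding-model fit of sensorgrams.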
A general note: SPR reads the build-up and loss of mass on a sensor chip optically.

For assay [2], the target named is T2, human FAP (Homo sapiens, UniProt Q12884).
T2 construct: the biotinylated His, Avi tag, human FAP (26-760, FAP-H82Q6); His; Avi tag (biotinylated); purchased AcroBiosystems FAP-H82Q6
T2 sequence (Q12884 26-760): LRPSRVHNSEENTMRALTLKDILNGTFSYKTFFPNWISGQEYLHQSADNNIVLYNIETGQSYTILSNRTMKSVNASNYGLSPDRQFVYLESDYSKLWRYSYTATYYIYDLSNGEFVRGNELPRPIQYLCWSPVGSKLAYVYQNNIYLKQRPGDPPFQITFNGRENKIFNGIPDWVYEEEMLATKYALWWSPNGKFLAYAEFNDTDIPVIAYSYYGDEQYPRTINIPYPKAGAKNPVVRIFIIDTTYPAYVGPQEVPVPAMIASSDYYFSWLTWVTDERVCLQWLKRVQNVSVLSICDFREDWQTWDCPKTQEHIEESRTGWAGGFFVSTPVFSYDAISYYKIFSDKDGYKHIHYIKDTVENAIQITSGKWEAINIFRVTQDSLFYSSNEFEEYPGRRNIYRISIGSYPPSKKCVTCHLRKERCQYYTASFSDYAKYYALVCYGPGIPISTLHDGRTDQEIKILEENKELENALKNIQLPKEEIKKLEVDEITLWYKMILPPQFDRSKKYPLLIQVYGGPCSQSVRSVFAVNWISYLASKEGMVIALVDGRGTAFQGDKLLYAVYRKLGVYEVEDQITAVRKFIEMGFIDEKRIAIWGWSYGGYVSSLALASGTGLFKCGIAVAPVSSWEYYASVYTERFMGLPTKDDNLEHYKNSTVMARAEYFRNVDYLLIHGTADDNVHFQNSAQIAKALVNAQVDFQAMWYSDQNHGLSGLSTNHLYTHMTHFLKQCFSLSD
Put plainly: Enzymatic FAP competition assay (Z-Gly-Pro-AMC fluorescence), human FAP. In kind it is biochemical. Particulars: read-out: h. FAP, Enz., IC50. In outline:
(§1)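 Biotinylated His/Avi-tagged FAP ectodomain (human 26-760, mouse 26-761) at 0.01 nM, preincubated 24 h with peptides (14 concentrations, up to 1 μM) in pH 7.5 phosphate, 150 mM NaCl, 0.05% Tween20, 1% DMSO. Then 50 μM Z-Gly-Pro-AMC, 4 h at 22-24° C; AMC fluorescence (380/460 nm) gave IC50 from duplicate points.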

Assay [3] has as its target T1, mouse FAP. Put plainly: Enzymatic FAP competition assay (Z-Gly-Pro-AMC fluorescence), mouse FAP. Particulars: read-out: m. FAP, Enz., IC50. In kind it is biochemical. In outline: as §1

Where a name gives a salt, the structure may show the parent alone. Starred links: 1 amine or outer side, 2 acyl side, 3 side chain; linkers in the order of their positions; H or OH if unused. Non-standard residues stand in square brackets, D forms with d. Residues, ends and D or L forms follow the SMILES beside them. Primed or numbered codes have the meaning given here. *: point of attachment. F(4amPEG2NHDOTA-Lu) = lutetium complex of (S)-2,2',2''-(10-(1-(4-(2-amino-2-carboxyethyl)phenyl)-3,12-dioxo-5,8-dioxa-2,11-diazatridecan-13-yl)-1,4,7,10-tetraazacyclododecane-1,4,7-triyl)triacetic acid (Phe with 4-aminomethyl-PEG2-DOTA-Lu), O=C([O-])CN1CCN(CC(=O)[O-])CCN(CC(=O)NCCOCCOCC(=O)NCc2ccc(C[C@H](N[*:1])C(=O)[*:2])cc2)CCN(CC(=O)[O-])CC1.[Lu+3]; F(4amPEG2NHNODAGA-Ga) = gallium complex of 2,2'-(7-(1-(4-((S)-2-amino-2-carboxyethyl)phenyl)-15-carboxy-3,12-dioxo-5,8-dioxa-2,11-diazapentadecan-15-yl)-1,4,7-triazonane-1,4-diyl)diacetic acid (Phe with 4-aminomethyl-PEG2-NODAGA-Ga), O=C([O-])CN1CCN(CC(=O)[O-])CCN(C(CCC(=O)NCCOCCOCC(=O)NCc2ccc(C[C@H](N[*:1])C(=O)[*:2])cc2)C(=O)[O-])CC1.[Ga+3]; COpipzaa = 4-(carboxymethyl)piperazine-1-carbonyl, O=C(O)CN1CCN(C(=O)*)CC1; F(4amPEG2NHDOTA-Ga)″ = Phe with 4-aminomethyl-PEG2-NH-DOTA, Ga complex; hS(Pr) = O-propyl-L-homoserine, CCCOCC[C@H](N[*:1])C(=O)[*:2]; mTyr = N[C@@H](Cc1cccc(O)c1)C(=O)O; NMeF = CN[C@@H](Cc1ccccc1)C(=O)O; Ahp(2) = CCCCC[C@H](N)C(=O)O

Consider “hSer-Gly-NMe3PyA-F(4amPEG2NHDOTA-Lu)-hS(Pr)-W7N-Gly-K(COpipzaa)-Asp-D-Pro [Example C6]”, for which the Kd in assay [1] was < 0.035 nM. The IC50 in assay [2] came out at 0.024 nM; in assay [3], 0.049 nM.
With `CCCCC[C@@H]1NC(=O)[C@H](Cc2ccc(O)cc2)NC(=O)[C@H](Cc2ccccc2)N(C)C(=O)CNC(=O)CNC(=O)[C@H]2CCCN2C(=O)[C@H](CC(=O)O)NC(=O)[C@H](Cc2cccc(O)c2)NC(=O)CNC(=O)[C@H](Cc2c[nH]c3ccccc23)NC1=O` [Example A14, Gly-Gly-NMePhe-Tyr-Ahp-Trp-Gly-F(3OH)-Asp-D-Pro] (cyclo([Ahp(2)]WG[mTyr]D[dP]GG[NMeF]Y)), the Kd in assay [1] stood at 0.239 nM. In addition, the IC50 is 0.092 nM in assay [2] and 0.37 nM in assay [3].
Regarding “Gly-Gly-NMePhe-F(4amPeG2NHDOTA-Ga)-Ahp-Trp-Gly-K(COpipzaa)-asp-D-Pro (cyclo(GG[NMeF][F(4amPEG2NHDOTA-Ga)″][Ahp(2)]WGK(COpipzaa)D[dP]); also: Ga in DOTA chelate) [Example C46]”, the Kd in assay [1] was < 0.016 nM. In addition, the IC50 in assay [2] came out at 0.012 nM; in assay [3], 0.032 nM.
Take `CCCCC[C@@H]1NC(=O)[C@H](Cc2ccc(O)cc2)NC(=O)[C@H](Cc2ccccc2)N(C)C(=O)[C@H](CCC(=O)O)NC(=O)[C@H](CCCCN)NC(=O)[C@H]2CCCN2C(=O)[C@H](CC(=O)O)NC(=O)[C@H](Cc2ccc(O)cc2)NC(=O)CNC(=O)[C@H](Cc2c[nH]c3ccccc23)NC1=O` [Example A21, Lys-Glu-NMePhe-Tyr-Ahp-Trp-Gly-Tyr-Asp-D-Pro, TFA salt] (cyclo([Ahp(2)]WGYD[dP]KE[NMeF]Y)): in assay [1], the Kd came to 15 nM. The IC50 in assay [2] is 5.7 nM; in assay [3], 14 nM.
The corresponding values for `CCCCC[C@@H]1NC(=O)[C@H](Cc2ccc(O)cc2)NC(=O)[C@H](Cc2ccccc2)N(C)C(=O)CNC(=O)[C@H](CCCCN)NC(=O)[C@H]2CCCN2C(=O)[C@H](CC(=O)O)NC(=O)[C@H](Cc2ccc(O)cc2)NC(=O)CNC(=O)[C@H](Cc2c[nH]c3ccccc23)NC1=O` [Example A53, Lys-Gly-NMePhe-Tyr-Ahp-Trp-Gly-Tyr-Asp-D-Pro, TFA salt] (cyclo([Ahp(2)]WGYD[dP]KG[NMeF]Y)) are 0.72 nM, 0.4 nM and 1.3 nM.
As for “Gly-Gly-NMePhe-F(4amPEG2NHNODAGA-Ga)-hS(Pr)-Trp-Gly-K(COpipzaa)-Asp-D-Pro (cyclo(GG[NMeF][F(4amPEG2NHNODAGA-Ga)][hS(Pr)]WGK(COpipzaa)D[dP]); also: Ga complex) [Example C40]”, the Kd in assay [1] was < 0.02 nM. Also, the IC50 was 0.006 nM in assay [2] and 0.019 nM in assay [3].
Consider “Gly-Gly-NMe3PyA-F(4amPEG2NHDOTA-Lu)-hS(Pr)-W7N-Gly-K(COpipzaa)-Asp-D-Pro [Example C3]”, for which the Kd in assay [1] is < 0.041 nM. Moreover, the IC50 was determined as 0.007 nM in assay [2] and 0.019 nM in assay [3].
On the same counts, the results for “Gly-Gly-NMePhe-F(4amPEG2NHDOTA-Lu)-Ahp-Trp-Gly-Tyr-Asp-D-Pro (cyclo(GG[NMeF][F(4amPEG2NHDOTA-Lu)][Ahp(2)]WGYD[dP]); also: Lu complex) [Example C15]” are 0.013 nM, 0.003 nM and 0.009 nM.

As a reminder, the Kd is the free concentration of one partner at which half of the binding sites on the other are occupied at equilibrium, for simple one-to-one binding. Low values mean a tighter complex, high ones a looser complex. For orientation: IC50 means the concentration that gives 50% inhibition.
